Test results: patent US6803378B2, “HIV integrase inhibitors” (Bristol-Myers Squibb Company, priority 2000, dated 2004)

Columns and labels:
HIV-1 integrase = target: T1, HIV-1 integrase (Human immunodeficiency virus type 1 group M subtype B, UniProt P04585); assay: In vitro activity against integrase, Method A (immobilized precleaved substrate DNA, biotinylated target DNA, 96 well plate); type: biochemical; conditions: Assay Method A, read-out: Percent inhibition of HIV Integrase at 70 uM
T1 construct: Purified recombinant HIV-1 integrase was incubated with immobilized precleaved substrate DNA
Method: (§1) The in vitro activities, against integrase, of compounds of the present invention were measured by one of the following three methods.
In Method A, the in vitro activity against integrase was measured in a manner which was similar to previously disclosed methods (cf. Hazuda, D. J.; Felock, P.; Witmer, M.; Wolfe, A.; Stillmock, K.; Grobler, J. A.; Espeseth, A.; Gabryelski, L.; Schleif, W.; Blau, C.; Miller, M. D. Science, 2000, 287, 646) Purified recombinant HIV-1 integrase was incubated with immobilized precleaved substrate DNA in a 96 well plate for 20 min at 37° C. After the integration complex was formed, compounds at desired concentrations were added to the wells followed by a 10 min incubation at 37° C. Biotinyted Target DNA was then added and the reaction was carried out for an additional 1 hour at 37° C. Wells were then washed thoroughly to remove any free DNA and integration activity was measured by using a commercial kit to quantitate the amount of biotinyted target DNA integrated into the substrate.

HIV Integrase [1] = target: T2, HIV Integrase (Human immunodeficiency virus type 1 group M subtype B, UniProt P04585); assay: In vitro activity against integrase, Method C (electroluminescence, ECL assay); type: biochemical; conditions: read-out: Percent inhibition of HIV Integrase at 70 uM
T2 construct: 0.26 ng of recombinant integrase was then incubated with the beads
Method: as §1
(§2) In Method B, the in vitro activity against integrase was measured by binding, for each reaction, 5 pmole of biotin labeled substrate DNA to 100 ug of Streptavidin coated PVT SPA beads (Amersham Pharmacia Biotech). 0.26 ng of recombinant integrase was then incubated with the beads for 90 min at 37° C. Unbound enzyme was removed by washing the complex followed by addition of inhibitors and 0.1 fmol of P33 labeled target DNA. Reaction was stopped by adding EDTA to a final concentration of 10 mM. Samples were counted in TopCountNXT (Packard) and the CPM was used as a measure of integration. Reaction condition was as described in A. Engelman and R. Craigie, J. Virol. 69, 5908-5911 (1995). The sequences of substrate and target DNA were described in Nucleic Acid Research 22, 1121-1122 (1994).
Method C (Electroluminesence Assay):
The ECL assay of Method C is essentially the same as the SPA assay of Method B, except that 0.5 μg of Streptavidin coated magnetic beads and 0.5 pmol Ru labeled target DNA were used for each reaction instead of SPA beads and P33 labeled DNA. The samples were read in a M8 analyzer (IGEN International, Inc).

HIV Integrase [2] = target: T2, HIV Integrase; assay: In vitro activity against integrase, Method B (SPA assay); type: biochemical; conditions: read-out: Percent inhibition of HIV Integrase at 70 uM
Method: as §1, §2

| SMILES | melting point | inhibition at 70 µM (HIV Integrase [1]) [%] | other results |
| --- | --- | --- | --- |
| CN(Cc1ccccc1Cl)C(=O)/C=C(\O)C(=O)O [Compound 10, 3-[(2-Chloro-benzyl)-methyl-carbamoyl]-2-hydroxy-acrylic acid] | 84 to 86 °C |  | inhibition at 70 µM (HIV-1 integrase): 79% |
| O=C(O)/C(O)=C/C(=O)N(Cc1ccc(Cl)cc1)Cc1ccc(Cl)c(Cl)c1 | 152 °C (dec.) |  |  |
| CC(c1ccc(F)cc1)N(C)C(=O)/C=C(\O)C(=O)O (stereo not drawn) [Compound 50, 3-{[1-(4-Fluoro-phenyl)-ethyl]-methyl-carbamoyl}-2-hydroxy-acrylic acid] |  | 99 |  |
| O=C(O)/C(O)=C/C(=O)N(CCCc1ccccc1Cl)Cc1ccc(F)cc1 [Compound 87, 3-[[3-(2-Chloro-phenyl)-propyl]-(4-fluoro-benzyl)-carbamoyl]-2-hydroxy-acrylic acid] |  | 99 |  |
| O=C(O)/C(O)=C/C(=O)N(Cc1ccc(F)cc1)Cc1ccc(F)cc1 [Compound 11, 3-[Bis-(4-fluoro-benzyl)-carbamoyl]-2-hydroxy-acrylic acid] | > 147 °C (dec.) |  | inhibition at 70 µM (HIV Integrase [2]): 97% |
| CC(C)N(CCCc1ccccc1)C(=O)/C=C(\O)C(=O)O [Compound 44, 2-Hydroxy-3-[isopropyl-(3-phenyl-propyl)-carbamoyl]-acrylic acid] |  | 95.5 |  |
| O=C(O)/C(O)=C/C(=O)N(CCOc1ccc(F)cc1)Cc1ccc(F)cc1 [Compound 47, 3-{(4-Fluoro-benzyl)-[2-(4-fluoro-phenoxy)-ethyl]-carbamoyl}-2-hydroxy-acrylic acid] |  | 99 |  |
